Assay results as given in patent US4115065A, “Saturation analysis of folate compound with selenium-75 labeled folate” (The Radiochemical Centre Limited, priority 1973, dated 1978).
“And” between values parts separate entries of the source, which are not always exact repeats. Equal entries are not always repeated.

Columns and labels:
β-lactoglobulin [1] = target: T1, β-lactoglobulin (Bos taurus, UniProt P02702); assay: Example 6: saturation assay, Se75 pteroyl-L-selenomethionine label, N5-methyltetrahydrofolate standards; assay type: binding; conditions: 0.5 ng label
Method: (§1) Standard solutions of N^5 -methyltetrahydrofoate containing 0, 0.25, 0.5, 1, 2 and 4 ng in phosphate-albumin buffer (200 μl) were pipetted in assay tubes. Buffer was also added to `total` and `blank` tubes (400 and 300 μl respectively). To each tube was added pteroyl-L-methylselenocysteine-Se75 (0.5 ng, sp. act. ca 0.24 Ci/m.mole) in 100 μl of buffer. Immediately afterwards β-lactoglobulin (100 μg) in 100 μl of buffer was added to all tubes except the blanks. After 60 minutes incubation at room temperature, a suspension of albumin-coated charcoal in buffer (200 μl) was added at 4° C. to all tubes except the totals. The tubes were centrifuged (2000g for 10 minutes) and the supernate was counted for 300 seconds in an NE8312 beta-gamma counter.
(§2) Results are expressed in terms of [formula]
(§3) The protocol of example 4 was used except that Se75-pteroyl-L-selenomethionine (0.5ng, sp. act. ca 2.25 Ci/m.mole) was substituted as label for Se75-pteroyl-L-methylselenocysteine.
Target sequence in this assay (P02702 20-234 limits assumed): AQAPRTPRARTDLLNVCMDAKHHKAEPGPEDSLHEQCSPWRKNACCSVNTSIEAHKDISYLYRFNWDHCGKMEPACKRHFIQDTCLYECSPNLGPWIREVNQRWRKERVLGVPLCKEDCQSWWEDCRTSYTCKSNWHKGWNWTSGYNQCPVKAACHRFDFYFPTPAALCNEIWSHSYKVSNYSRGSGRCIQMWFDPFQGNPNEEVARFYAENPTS

[2] = test system: porcine serum as binding protein; assay: Example 7: saturation assay, Se75 pteroyl-L-selenomethionine label, N5-methyltetrahydrofolate standards, porcine serum binder; conditions: 0.5 ng label, porcine serum 30 μl
Method: as §1, §2, §3
The protocol of example 6 was used except that a solution of porcine serum (30 μl) in buffer (70 μl) was substituted for β-lactoglobulin as binding protein.

[3] = test system: porcine serum as binding protein; assay: Example 11: saturation assay, Se75 pteroyl-L-selenomethionine label, folic acid standards, porcine serum binder; conditions: 0.5 ng label, porcine serum 30 μl
Method: as §1, §2, §3
The protocol of example 6 was used except that folic acid was substituted for N^5 -methyltetrahydrofolate as standard.
The protocol of example 10 was used except that a solution containing 30 μl of porcine serum and 70 μl of buffer was substituted for β-lactoglobulin as binding protein.

[4] = test system: rabbit anti folic acid antiserum; assay: Example 13: radioimmunoassay for folic acid, Se75 pteroyl-L-selenomethionine label; assay type: binding; conditions: 0.5 ng label
Method: (§4) Standard solutions of folic acid containing 0, 0.25, 0.5, 1, 2 and 4 ng in phosphate-albumin buffer (200 μl) were pipetted into assay tubes. Buffer was also added to `total` and `blank` tubes (400 and 300 μl respectively). To each tube was added Se75-pteroyl-L-methylselenocysteine (0.5 ng, sp. act. ca 0.24 Ci/m.mole) in 100 μl of buffer. Immediately afterwards was added, to all tubes except the blanks, 100 μl of buffer containing 2 μl of a 1/15000 titre rabbit anti folic acid antiserum, raised against a conjugate of folic acid with serum albumin.
(§5) After 60 minutes incubation at room temperature, a suspension of albumin-coated charcoal in buffer (200 μl) was added at 4° C. to all tubes except the totals. The tubes were centrifuged (2000g for 10 minutes) and the supernate was counted for 300 seconds.
The protocol of example 12 was used except that Se75-pteroyl-L-selenomethionine (0.5ng, sp. act. ca 2.25 Ci/m.mole) was substituted for Se-75-pteroyl-L-methylselenocysteine as label

β-lactoglobulin [5] = target: T1, β-lactoglobulin; assay: Example 4: saturation assay for folates, Se75 pteroyl-L-methylselenocysteine label, N5-methyltetrahydrofolate standards; assay type: binding; conditions: 0.5 ng label, β-lactoglobulin 100 μg
Method: as §1, §2
Target sequence in this assay (P02702 20-234 limits assumed): as above

β-lactoglobulin [6] = target: T1, β-lactoglobulin; assay: Example 5: saturation assay, Se75 pteroyl-L-methylselenocysteine label, folic acid standards; assay type: binding; conditions: 0.5 ng label, β-lactoglobulin 100 μg
Method: as §1, §2
Target sequence in this assay (P02702 20-241): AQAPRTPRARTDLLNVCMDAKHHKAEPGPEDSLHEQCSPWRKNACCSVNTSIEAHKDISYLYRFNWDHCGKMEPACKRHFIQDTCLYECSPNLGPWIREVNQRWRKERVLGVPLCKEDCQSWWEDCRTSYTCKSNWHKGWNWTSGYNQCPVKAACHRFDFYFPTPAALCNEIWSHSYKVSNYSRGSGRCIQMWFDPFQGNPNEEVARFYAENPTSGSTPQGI
The protocol of example 4 was used except that folic acid was used as the standard instead of N^5 -methyltetrhydrofolate

[7] = test system: porcine serum as binding protein; assay: Example 8: saturation assay, Se75 pteroyl-L-methylselenocysteine label, N5-methyltetrahydrofolate standards, porcine serum binder; conditions: 0.5 ng label, porcine serum 30 μl
Method: as §1, §2
(§6) The protocol of example 4 was used except that a solution (100 μl) containing 30 μl of porcine serum and 70 μl of buffer was used instead of β-lactoglobulin as binding protein.

[8] = test system: porcine serum as binding protein; assay: Example 9: saturation assay, Se75 pteroyl-L-methylselenocysteine label, folic acid standards, porcine serum binder; conditions: 0.5 ng label, porcine serum 30 μl
Method: as §1, §2, §6
The protocol of example 8 was used except that folic acid was substituted for N^5 -methyltetrahydrofolate as standard

[9] = test system: rabbit anti folic acid antiserum; assay: Example 12: radioimmunoassay for folic acid, Se75 pteroyl-L-methylselenocysteine label; assay type: binding; conditions: 0.5 ng label, 2 μl rabbit anti folic acid antiserum
Method: as §4, §5

[10] = 0.25 ng N5 methyltetrahydrofolate
[11] = 0.5 ng N5 methyltetrahydrofolate

## C[75Se]CC[C@H](NC(=O)c1ccc(NCc2cnc3nc(N)[nH]c(=O)c3n2)cc1)C(=O)O [Se75-pteroyl-L-selenomethionine, N-Pteroyl-L-selenomethionine-Se75]
β-lactoglobulin [1]; 0 ng N5 methyltetrahydrofolate
  Percent of labelled folate bound: 49.9%
β-lactoglobulin [1]; [10]
  Percent of labelled folate bound: 39.3% and 36.1%
β-lactoglobulin [1]; [11]
  Percent of labelled folate bound: 35.9% and 37.3%
β-lactoglobulin [1]; 1 ng N5 methyltetrahydrofolate
  Percent of labelled folate bound: 32.6% and 33.0%
β-lactoglobulin [1]; 2 ng N5 methyltetrahydrofolate
  Percent of labelled folate bound: 25.9%
β-lactoglobulin [1]; 4 ng N5 methyltetrahydrofolate
  Percent of labelled folate bound: 25.4% and 24.1%
[2]; 0 mg N5 methyltetrahydrofolate
  Percent of labelled folate bound: 36.4%
[2]; 4 ng N5 methyltetrahydrofolate
  Percent of labelled folate bound: 15.5% and 15.6%
[2]; 0.25 mg N5 methyltetrahydrofolate
  Percent of labelled folate bound: 21.3%
[2]; 0.5 mg N5 methyltetrahydrofolate
  Percent of labelled folate bound: 17.2% and 17.1%
[2]; 1 mg N5 methyltetrahydrofolate
  Percent of labelled folate bound: 20.7% and 18.5%
[2]; 2 mg N5 methyltetrahydrofolate
  Percent of labelled folate bound: 19.3% and 17.2%
[3]; 0 ng folic acid
  Percent of labelled folate bound: 35.7%
[3]; 0.25 ng folic acid
  Percent of labelled folate bound: 20.3% and 21.1%
[3]; 0.5 ng folic acid
  Percent of labelled folate bound: 18.4% and 20.9%
[3]; 1 ng folic acid
  Percent of labelled folate bound: 16.8% and 17.3%
[3]; 2 ng folic acid
  Percent of labelled folate bound: 13.0% and 13.9%
[3]; 4 ng folic acid
  Percent of labelled folate bound: 12.6% and 15.2%
[4]; 0 ng folic acid
  Percent of labelled folate bound: 42.2%
[4]; 0.25 ng folic acid
  Percent of labelled folate bound: 25.7% and 27.6%
[4]; 0.5 ng folic acid
  Percent of labelled folate bound: 22.1% and 19%
[4]; 1 ng folic acid
  Percent of labelled folate bound: 20.8% and 21.9%
[4]; 2 ng folic acid
  Percent of labelled folate bound: 16.7% and 15.5%
[4]; 4 ng folic acid
  Percent of labelled folate bound: 16% and 13.7%

## C[75Se]C[C@H](NC(=O)c1ccc(NCc2cnc3nc(N)[nH]c(=O)c3n2)cc1)C(=O)O [pteroyl-L-methylselenocysteine-Se75, N-Pteroyl-Se-methyl-L-selenocysteine-Se75]
β-lactoglobulin [5]; 0 ng N5 methyltetrahydrofolate, 60 minutes room temperature
  percentage of labelled folate bound: 94%
β-lactoglobulin [5]; [10]
  percentage of labelled folate bound: 81.8% and 78.0%
β-lactoglobulin [5]; [11]
  percentage of labelled folate bound: 81.4%
β-lactoglobulin [5]; 1 ng N5 methyltetrahydrofolate
  percentage of labelled folate bound: 78.3% and 78.6%
β-lactoglobulin [5]; 2 ng N5 methyltetrahydrofolate
  percentage of labelled folate bound: 51.3% and 58.0%
β-lactoglobulin [5]; 4 ng N5 methyltetrahydrofolate
  percentage of labelled folate bound: 44.4% and 34.1%
β-lactoglobulin [6]; 0 ng folic acid
  percentage of labelled folate bound: 95.5%
β-lactoglobulin [6]; 0.25 ng folic acid
  percentage of labelled folate bound: 86.1% and 85.6%
β-lactoglobulin [6]; 0.5 ng folic acid
  percentage of labelled folate bound: 67.7% and 82.5%
β-lactoglobulin [6]; 1 ng folic acid
  percentage of labelled folate bound: 45.5% and 41.4%
β-lactoglobulin [6]; 2 ng folic acid
  percentage of labelled folate bound: 28.1% and 32.6%
β-lactoglobulin [6]; 4 ng folic acid
  percentage of labelled folate bound: 10.4%
[7]; 0 ng N5 methyltetrahydrofolate
  Percent of labelled folate bound: 89.3%
[7]; [10]
  Percent of labelled folate bound: 61.4% and 52.0%
[7]; [11]
  Percent of labelled folate bound: 43.3% and 48.1%
[7]; 1 ng N5 methyltetrahydrofolate
  Percent of labelled folate bound: 41.2% and 38.9%
[7]; 2 ng N5 methyltetrahydrofolate
  Percent of labelled folate bound: 40.9% and 39.3%
[7]; 4 ng N5 methyltetrahydrofolate
  Percent of labelled folate bound: 34.5% and 31.0%
[8]; 0 ng folic acid
  Percent of labelled folic acid bound to porcine serum: 92.7%
[8]; 0.25 ng folic acid
  Percent of labelled folic acid bound to porcine serum: 67.1% and 68.7%
[8]; 0.5 ng folic acid
  Percent of labelled folic acid bound to porcine serum: 60.9% and 43%
[8]; 1 ng folic acid
  Percent of labelled folic acid bound to porcine serum: 26.2% and 31.3%
[8]; 2 ng folic acid
  Percent of labelled folic acid bound to porcine serum: 28.0% and 28.3%
[8]; 4 ng folic acid
  Percent of labelled folic acid bound to porcine serum: 9% and 2.6%
[9]; 0 ng folic acid
  Percent of labelled folate bound to antiserum: 97.6%
[9]; 0.25 ng folic acid, listed as Se75-pteroyl-L-methylselenocysteine
  Percent of labelled folate bound to antiserum: 72.4% and 90.9%
[9]; 0.5 ng folic acid, listed as Se75-pteroyl-L-methylselenocysteine
  Percent of labelled folate bound to antiserum: 52.5% and 70.3%
[9]; 1 ng folic acid, listed as Se75-pteroyl-L-methylselenocysteine
  Percent of labelled folate bound to antiserum: 50.1% and 35.3%
[9]; 2 ng folic acid, listed as Se75-pteroyl-L-methylselenocysteine
  Percent of labelled folate bound to antiserum: 20.1% and 29.6%
[9]; 4 ng folic acid, listed as Se75-pteroyl-L-methylselenocysteine
  Percent of labelled folate bound to antiserum: 20.1% and 12.8%
